Test results published in paper PMC5068570 (Journal of the American Chemical Society, 2016).

Target: T1, Robo1 (Roundabout receptor 1; Robo1-GFP) (Homo sapiens, UniProt Q9Y6N7)
T1 sequence (Q9Y6N7 60-265 limits assumed): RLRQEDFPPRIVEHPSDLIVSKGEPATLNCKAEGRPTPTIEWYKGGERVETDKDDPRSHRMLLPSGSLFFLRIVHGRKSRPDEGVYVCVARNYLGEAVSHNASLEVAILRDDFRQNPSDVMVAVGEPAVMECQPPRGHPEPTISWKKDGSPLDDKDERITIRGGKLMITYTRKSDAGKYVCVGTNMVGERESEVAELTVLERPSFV
Experiment: SPR, Biacore T100, Robo1 immobilised on CM5
Assay type: binding
Details: HBS-EP pH 7.4, 150 mM NaCl, 25 °C; Langmuir 1:1 fit

Substance | Kd [µM]
IdoA-GlcNS6S-IdoA-GlcNS6S [compound 19] | ~20
GlcA-GlcNS6S-IdoA-GlcNS-IdoA2S-GlcNS6S-IdoA-GlcNAc6S [compound 1] | 4.8
